Data reported in patent publication US9120877B2, “Sulfated polysaccharide compound and the preparation and use thereof” (PARNELL TECHNOLOGIES PTY LTD, priority 2008, dated 2015).

Test: Stability (degradation and discolouration) of injectable aqueous GXS formulation with antioxidants without refrigeration
Type: physicochemical
Settings: antioxidant in GXS injectable formulation, room temperature
Source text: In one arrangement, the injectable formulation includes a suitable antioxidant to enable the aqueous formulation to remain substantially stable (that is to resist discolouration and degradation) without refrigeration. Patent WO 2007/123800 claims a PPS formulation with “an antioxidant in the group metabisulfite, sodium bisulfate and ascorbate in a concentration of about 0.02% w/v to about 5.0% w/v” is stable without refrigeration. […] This finding supports a conclusion that GXS is a distinct entity to prior art PPS extracted from xylan.

Row | Structure (SMILES) | Exemplary effective concentration to achieve substantial stability of GXS injectable formulation
1 | O=S([O-])O.[Na+] [Sodium bisulfite ACS Reagent, Sodium bisulfite] | 0.5% by weight/volume
2 | O=S(=O)([O-])CO.[Na+] [Sodium hydroxymethane sulfonate] | 1% by weight/volume
3 | O=S([O-])S(=O)(=O)[O-].[Na+].[Na+] [Sodium metabisulfite] | 0.5% by weight/volume
